{"source": "patent US20150250210A1", "about": "“FLAVOUR ADDITIVES” (MARS INCORPORATED, priority 2012, published 2015)", "data": [{"test_system": "T1R1/T1R3 umami receptor", "assay": "in silico modelling and in vitro screening for binding and activation of the umami receptor", "type": "cell-based, cat", "details": "feline umami receptor", "method": "(§1) In vitro screening was carried out in order to establish which amino acids bind and activate the umami receptor.\n(§2) In vitro screening was carried out in order to establish which nucleotides bind and activate the umami receptor.", "values": [{"smiles": "N[C@@H](CCC(=O)O)C(=O)O", "note": "[glutamate]", "binding to the feline umami receptor": "does not bind"}]}, {"test_system": "T1R1/T1R3 umami receptor", "assay": "in silico modelling and in vitro screening for binding and activation of the umami receptor", "type": "cell-based, cat", "details": "non-human umami receptor; in silico modelling and in vitro assays", "method": "as §1, §2", "values": [{"smiles": "CSCC[C@H](N)C(=O)O", "note": "[methionine]", "ability to bind to and activate the umami receptor": "able to bind to and activate the umami receptor to different extents"}, {"smiles": "N[C@@H](Cc1c[nH]cn1)C(=O)O", "note": "[histidine]", "ability to bind to and activate the umami receptor": "able to bind to and activate the umami receptor to different extents"}, {"smiles": "NCC(=O)O", "note": "[glycine]", "ability to bind to and activate the umami receptor": "able to bind to and activate the umami receptor to different extents"}, {"smiles": "N[C@@H](Cc1ccc(O)cc1)C(=O)O", "note": "[tyrosine]", "ability to bind to and activate the umami receptor": "able to bind to and activate the umami receptor to different extents"}, {"smiles": "N[C@@H](CO)C(=O)O", "note": "[serine]", "ability to bind to and activate the umami receptor": "able to bind to and activate the umami receptor to different extents"}, {"smiles": "NC(=O)C[C@H](N)C(=O)O", "note": "[asparagine]", "ability to bind to and activate the umami receptor": "able to bind to and activate the umami receptor to different extents"}, {"smiles": "C[C@H](N)C(=O)O", "note": "[alanine]", "ability to bind to and activate the umami receptor": "able to bind to and activate the umami receptor to different extents"}, {"smiles": "N[C@@H](Cc1c[nH]c2ccccc12)C(=O)O", "note": "[tryptophan]", "ability to bind to and activate the umami receptor": "able to bind to and activate the umami receptor to different extents"}, {"smiles": "CC(C)C[C@H](N)C(=O)O", "note": "[leucine]", "ability to bind to and activate the umami receptor": "able to bind to and activate the umami receptor to different extents"}, {"smiles": "N[C@@H](CS)C(=O)O", "note": "[cysteine]", "ability to bind to and activate the umami receptor": "able to bind to and activate the umami receptor to different extents"}, {"smiles": "N[C@@H](Cc1ccccc1)C(=O)O", "note": "[phenylalanine]", "ability to bind to and activate the umami receptor": "able to bind to and activate the umami receptor to different extents"}]}]}
